Activity calls are given as the source filed them. The calls are words filed in the database; no cut-off is given here.
What was measured:
[1] = Selectivity ratio of substrate activity at PEPT1 (unknown origin) expressed in MDCK cells assessed as PEPT1 mediated drug uptake to drug uptake in MDCK cells
[2] = Toxicity in NOD SCID nude mouse xenografted with human MIA PaCa-2 cells assessed as body weight at 90 mg/kg, iv for 20 days (reference value: 28.4 +/- 2.1g); type: organism-based; conditions: in vivo, 480 h, time 20 day
[3] = target: T1, Sodium- and chloride-dependent neutral and basic amino acid transporter B(0+) (Homo sapiens) (UniProt Q9UN76); assay: Substrate activity at SLC6A14 (unknown origin) expressed in Xenopus laevis oocytes assessed as increase in ABT0+ mediated drug uptake at 1 mM in presence of Na+ ion by HPLC analysis; type: cell-based; conditions: Oocyte
T1 sequence (whole entry): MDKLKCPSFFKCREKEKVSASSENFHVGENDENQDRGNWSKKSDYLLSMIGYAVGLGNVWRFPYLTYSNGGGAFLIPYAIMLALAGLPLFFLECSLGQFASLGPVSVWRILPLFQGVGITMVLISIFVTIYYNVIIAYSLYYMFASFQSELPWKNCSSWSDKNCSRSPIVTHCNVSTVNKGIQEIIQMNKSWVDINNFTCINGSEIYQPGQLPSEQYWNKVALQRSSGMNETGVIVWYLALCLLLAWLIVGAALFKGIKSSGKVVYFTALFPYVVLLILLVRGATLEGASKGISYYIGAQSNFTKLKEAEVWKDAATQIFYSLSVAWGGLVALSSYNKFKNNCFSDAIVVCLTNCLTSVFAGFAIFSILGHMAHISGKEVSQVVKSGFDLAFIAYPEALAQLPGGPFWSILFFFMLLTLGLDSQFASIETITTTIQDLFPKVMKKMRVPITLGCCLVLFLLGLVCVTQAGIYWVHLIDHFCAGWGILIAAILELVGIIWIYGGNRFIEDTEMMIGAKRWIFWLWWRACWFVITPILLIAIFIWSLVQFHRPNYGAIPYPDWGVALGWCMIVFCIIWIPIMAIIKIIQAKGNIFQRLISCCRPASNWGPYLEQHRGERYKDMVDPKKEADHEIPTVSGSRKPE

[4] = Drug uptake in MDCK cells incubated for 10 mins by HPLC analysis; type: ADME, cell-based, Canis lupus familiaris; conditions: dog, 500 µM, dose 0.5 mM
[5] = Selectivity ratio of substrate activity at SLC6A14 (unknown origin) expressed in Xenopus laevis oocytes assessed as ABT0+ mediated drug uptake to drug uptake in Xenopus laevis oocytes; design: species or system Oocyte
[6] = target: T2, Solute carrier family 15 member 1 (Homo sapiens, UniProt P46059); assay: Substrate activity at PEPT1 (unknown origin) expressed in MDCK cells assessed as PEPT1 mediated drug uptake at 0.5 mM incubated for 10 mins by HPLC analysis; type: ADME, cell-based; conditions: 500 µM
T2 sequence (P46059 whole entry): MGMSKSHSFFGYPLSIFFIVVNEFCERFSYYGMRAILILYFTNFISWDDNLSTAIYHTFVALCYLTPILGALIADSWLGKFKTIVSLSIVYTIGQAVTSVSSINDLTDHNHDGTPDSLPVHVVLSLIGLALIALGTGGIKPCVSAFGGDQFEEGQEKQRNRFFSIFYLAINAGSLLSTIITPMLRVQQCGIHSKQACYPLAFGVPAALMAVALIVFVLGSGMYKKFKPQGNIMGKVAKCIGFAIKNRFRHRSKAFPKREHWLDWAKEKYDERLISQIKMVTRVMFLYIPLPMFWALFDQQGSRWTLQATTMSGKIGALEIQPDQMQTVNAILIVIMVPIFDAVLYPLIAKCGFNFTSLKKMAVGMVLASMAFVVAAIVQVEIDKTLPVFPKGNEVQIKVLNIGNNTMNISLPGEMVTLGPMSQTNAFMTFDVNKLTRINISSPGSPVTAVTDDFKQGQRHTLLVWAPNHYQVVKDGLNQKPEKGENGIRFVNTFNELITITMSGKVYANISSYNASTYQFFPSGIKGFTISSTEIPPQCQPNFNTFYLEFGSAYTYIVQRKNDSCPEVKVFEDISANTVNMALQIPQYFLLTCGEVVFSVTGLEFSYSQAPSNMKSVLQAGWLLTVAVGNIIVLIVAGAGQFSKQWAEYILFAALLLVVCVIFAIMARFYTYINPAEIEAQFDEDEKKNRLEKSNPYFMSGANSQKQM

[7] = Cmax in NOD SCID nude mouse tumour xenografted with ZR-75-1 cells assessed as floxuridine; 5-fluoro-2-deoxyuridine concentration at 90 mg/kg, iv measured up to 24 hrs by HPLC-MS/MS analysis; type: ADME, organism-based, Neoplasm; design: route intravenous, dose 90 mg/kg, time <=24; conditions: in vivo
[8] = Half life in rat plasma at 200 uM measured up to 120 mins by HPLC-MS/MS analysis; type: ADME, cell-free
[9] = target: T2, Solute carrier family 15 member 1; assay: Substrate activity at PEPT1 (unknown origin) expressed in MDCK cells assessed as inhibition of gly-sar uptake incubated for 10 mins by HPLC/MS/MS analysis; type: cell-based
[10] = Toxicity in NOD SCID nude mouse xenografted with human MDA-MB-231 cells assessed as body weight at 90 mg/kg, iv for 20 days (reference value: 30.1 +/- 4.1g); type: organism-based; conditions: in vivo, 480 h, time 20 day
[11] = Drug uptake in Xenopus laevis oocytes at 0.5 mM incubated for 10 mins by HPLC analysis; type: ADME, cell-based; conditions: oocyte, 500 µM
MIA PaCa-2 [12] = assay: Potency index, ratio of FUdR GI50 to test compound GI50 for growth inhibition of human MIA-PaCa-2 cells; type: functional
[13] = Cmax in NOD SCID nude mouse plasma xenografted with ZR-75-1 cells assessed as fluorouracil at 90 mg/kg, iv measured up to 24 hrs by HPLC-MS/MS analysis; type: ADME, organism-based; design: route intravenous, dose 90 mg/kg, time <=24; conditions: in vivo
[14] = AUC (0 to t) in NOD SCID nude mouse plasma xenografted with ZR-75-1 cells at 90 mg/kg, iv measured up to 24 hrs by HPLC-MS/MS analysis; type: ADME, organism-based; design: route intravenous, dose 90 mg/kg, time <=24
MIA PaCa-2 [15] = assay: Antitumour activity against human MIA-PaCa-2 cells xenografted in NOD SCID nude mouse assessed as tumour inhibition at 90 mg/kg, iv administered for 20 days measured every 2 day by caliper method relative to control; type: functional; conditions: MIA PaCa-2, iv, 480 h, time 20 day
[16] = Half life of compound in human MDA-MB-231 cell homogenate; type: ADME, tissue-based
[17] = Cmax in NOD SCID nude mouse plasma xenografted with ZR-75-1 cells assessed as floxuridine; 5-fluoro-2-deoxyuridine concentration at 90 mg/kg, iv measured up to 24 hrs by HPLC-MS/MS analysis; type: ADME, organism-based; design: route intravenous, dose 90 mg/kg, time <=24; conditions: in vivo
thymidine phosphorylase = assay: Half life of compound in thymidine phosphorylase buffer at 300 uM by HPLC analysis; type: physicochemical
[18] = target: T3, Sodium- and chloride-dependent neutral and basic amino acid transporter B(0+) (Homo sapiens, UniProt Q9UN76); assay: Substrate activity at SLC6A14 (unknown origin) expressed in Xenopus laevis oocytes assessed as ABT0+ mediated drug uptake at 0.5 mM incubated for 10 mins by HPLC analysis; type: ADME, cell-based; conditions: oocyte, 500 µM
T3 sequence (Q9UN76 whole entry): T1 sequence (whole entry)

MDA-MB-231 = assay: Potency index, ratio of FUdR GI50 to test compound GI50 for growth inhibition of human MDA-MB-231 cells; type: functional

N[C@@H](CC(=O)OC[C@H]1O[C@@H](n2cc(F)c(=O)[nH]c2=O)C[C@@H]1O)C(=O)O
Ratio [1]: 1
Activity [2]: 26.3 g
Activity [3]: Active
Drug uptake [4]: < 0.04 nmol/mg/min
Ratio [5]: 9.28
Drug uptake [6]: < 0.04 nmol/mg/min
Cmax [7]: 700.2 ng/g
half-life at 200 µM [8]: 150 min
IC50 [9]: 10.2 mM
Activity [10]: 27.6 g
Drug uptake [11]: 0.32 nmol/mg/min
RatioGI50 (MIA PaCa-2 [12]): 7
Cmax [13]: 67.8 ng/mL
AUC(0-t) at 24 h [14]: 5070 ng·h/mL
inhibition in vivo at 90 mg/kg (MIA PaCa-2 [15]): 62.4%
half-life [16]: 11.1 min
Cmax [17]: 145.9 ng/mL
half-life at 300 µM (thymidine phosphorylase): 299 min
Drug uptake [18]: 2.97 nmol/mg/min
RatioGI50 (MDA-MB-231): 7
